Among the data in article PMC11984877, “Carnosic Acid Directly Targets STING C‐Terminal Tail to Improve STING‐Mediated Inflammatory Diseases” (Advanced Science, 2025) are Kd values, retold here.

Test [1] deals with T1, STING (stimulator of interferon genes) (Homo sapiens, UniProt Q86WV6). Description: SPR (Biacore T200); also carnosol-sepharose pull-down. Type of test: binding. On the set-up: gene STING1; purified human STING protein (TP308418, OriGene). A general note: In SPR one partner is held on a chip, and binding of the other changes the refractive index at the surface.
T1 sequence (Q86WV6 whole entry): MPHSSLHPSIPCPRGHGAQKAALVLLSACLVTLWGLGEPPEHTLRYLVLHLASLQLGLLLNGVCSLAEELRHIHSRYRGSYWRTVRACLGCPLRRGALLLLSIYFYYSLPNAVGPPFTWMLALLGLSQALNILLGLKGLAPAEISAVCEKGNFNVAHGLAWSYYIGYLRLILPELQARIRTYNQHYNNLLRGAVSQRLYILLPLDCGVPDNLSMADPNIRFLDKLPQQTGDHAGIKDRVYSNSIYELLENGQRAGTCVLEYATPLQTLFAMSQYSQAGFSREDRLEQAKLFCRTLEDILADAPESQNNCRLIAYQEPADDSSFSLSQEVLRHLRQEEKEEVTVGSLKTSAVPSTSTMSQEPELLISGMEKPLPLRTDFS
Test [2] addresses T1, STING (stimulator of interferon genes). As to the kind of experiment: SPR (Biacore T200); also MST (KD […]) and CA-sepharose pull-down competed by free CA. Type of test: binding. On the set-up: gene STING1; purified soluble human STING protein (TP308418, OriGene).

Usually Kd stands for the free concentration of one partner at which half of the binding sites on the other are occupied at equilibrium, for simple one-to-one binding. On to `CC(C)c1cc2c(c(O)c1O)[C@@]13CCCC(C)(C)[C@@H]1C[C@@H]2OC3=O` [carnosol], for which the Kd in test [1] was 1.07 µM. For the compound `CC(C)c1cc2c(c(O)c1O)[C@@]1(C(=O)O)CCCC(C)(C)[C@@H]1CC2` [CA, carnosic acid], the Kd in test [2] was determined as 3.17 µM.
